Tests used:
[1] = system: human KCNQ5 (hKCNQ5) potassium channel, SEQ ID No 2; assay: Two-electrode voltage-clamp of KCNQ5 currents in Xenopus oocytes injected with cRNA; assay type: cell-based; settings: 3s depolarizing step from -100 mV to 0 mV
Method: Xenopus laevis oocytes were obtained from tricaine anaesthetized animals. Ovaries were collagenase treated (1 mg/ 1 ml, Worthington, type II) in OR 2 solution (NaCl 82.5 mM, KCl 2 mM, MgCl2 1 mM, HEPES 5 mM, pH 7.4) for 120 min and subsequently stored in recording solution ND-96 (NaCl 96 mM, KCI 2 mM, CaCl2 1.8 mM, MgCl2 1 mM, HEPES 5 mM, pH 7.4) with additional NaPyruvate (275 mg/l), Theophylline (90 mg/l) and Gentamycin (50 mg/l) at 18°C. […] Standard two-electrode voltage-clamp recordings were performed at room temperature with a Turbo Tec 10CD (NPI) amplifier, an ITC-16 interface combined with Pulse software (HEKA) and Origin for data aquisition on Pentium 11 PC. Macroscopic currents were recorded 2-4 days after injection. All fitting procedures were based on the simplex algorithm. Student's t test was used to test for statistical significance, which was assumed if P<0.05 and indicated by *.
However, it can be described by a biexponential function. […] KCNQ5 deactivation was well fitted to a second order exponential function. The two components of deactivation were determined at a repolarizing voltage of -100 mV following a 3s depolarizing step to +40 mV.

KCNQ1 = settings: cited from earlier work
KCNQ2 = settings: at 10µM; cited from earlier work
KCNQ3 = settings: at 10µM; cited from earlier work

| Compound | block of KCNQ5 currents ([1]; at 100 µM) | block of KCNQ1 (KCNQ1; at 100 µM) | reduction of KCNQ5 current ([1]; at 30 µM) | inhibition of KCNQ2 (KCNQ2) | inhibition of KCNQ3 (KCNQ3) | IC50 (KCNQ1; read-out: IC50 (block of KCNQ1)) |
| --- | --- | --- | --- | --- | --- | --- |
| CCS(=O)(=O)N(C)[C@H]1c2cc(C#N)ccc2OC(C)(C)[C@@H]1O (racemic) [chromanol 293B] | 45% | 80% | – | – | – | – |
| CCCCCCC[N+](CC)(CC)CCCCc1ccc(Cl)cc1 [Clofilium] | – | – | 40% | little inhibition | 30% | < 10 µM |

Source: EP1268545B1, “POTASSIUM CHANNEL PROTEIN KCNQ5, A TARGET FOR DISEASES OF CENTRAL NERVOUS SYSTEM AND CARDIOVASCULAR SYSTEM” (priority 2000, dated 2001)
